In patent publication US8338465B2, “Cyclic carboxylic acid rhodanine derivatives for the treatment and prevention of tuberculosis” (priority 2006, dated 2012):

Target: T1, dihydrolipoamide acyltransferase (DlaT) (Mycobacterium tuberculosis, UniProt P9WIS7)
T1 sequence (P9WIS7 1-553): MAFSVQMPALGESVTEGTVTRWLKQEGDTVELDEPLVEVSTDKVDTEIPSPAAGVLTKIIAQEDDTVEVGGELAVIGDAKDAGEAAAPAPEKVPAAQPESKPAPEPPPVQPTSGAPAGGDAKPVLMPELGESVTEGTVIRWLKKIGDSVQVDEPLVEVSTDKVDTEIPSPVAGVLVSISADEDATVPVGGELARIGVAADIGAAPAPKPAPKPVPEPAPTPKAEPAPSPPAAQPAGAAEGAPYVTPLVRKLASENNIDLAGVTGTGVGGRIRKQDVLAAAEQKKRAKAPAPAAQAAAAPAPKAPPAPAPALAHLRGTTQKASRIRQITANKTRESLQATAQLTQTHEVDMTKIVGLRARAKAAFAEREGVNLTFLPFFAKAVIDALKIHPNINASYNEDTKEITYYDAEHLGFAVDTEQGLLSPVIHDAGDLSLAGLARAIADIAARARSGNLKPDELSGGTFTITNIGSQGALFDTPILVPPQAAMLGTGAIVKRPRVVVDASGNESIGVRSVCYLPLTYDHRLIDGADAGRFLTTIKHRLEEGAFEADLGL
Assay: DlaT inhibition (Dlat IC50); DTNB peroxidase assay with Lpd, DlaT and AhpD
Assay type: biochemical
Conditions: Table 1, Compounds A1 to A294; read-out: Dlat IC50 category

SMILES	IC50
CC(C)(C)c1ccc(-c2ccc(C=C3SC(=S)N(c4cccc(C(=O)O)c4)C3=O)o2)c(O)c1 [Compound A133]	< 10 µM
Cc1ccccc1-c1ccc(C=C2SC(=S)N(c3cccc(C(=O)O)c3)C2=O)o1 [Compound A134]	11 to 40 µM
COc1ccccc1-c1ccc(C=C2SC(=S)N(c3cccc(C(=O)O)c3)C2=O)o1 [Compound A135]	< 10 µM
O=C(O)c1ccc(Cl)c(N2C(=O)C(=Cc3ccc(-c4ccc(N5CCOCC5)cc4)o3)SC2=S)c1 [Compound A137]	< 10 µM
O=C(O)c1cccc(N2C(=O)C(=Cc3ccc(-c4ccccc4F)o3)SC2=S)c1 [Compound A138]	11 to 40 µM
COc1ccccc1-c1ccc(C=C2SC(=S)N(c3cc(C(=O)O)ccc3F)C2=O)o1 [Compound A139]	< 10 µM
COc1ccccc1-c1ccc(C=C2SC(=S)N(c3cc(C(=O)O)ccc3Cl)C2=O)o1 [Compound A140]	< 10 µM
COc1ccccc1-c1ccc(C=C2SC(=S)N(c3cc(C(=O)O)ccc3C)C2=O)o1 [Compound A141]	< 10 µM
COc1ccccc1-c1ccc(C=C2SC(=S)N(c3cccc(C(=O)O)c3C)C2=O)o1 [Compound A142]	< 10 µM
N#Cc1c(F)cccc1-c1ccc(C=C2SC(=S)N(c3cccc(C(=O)O)c3)C2=O)o1 [Compound A143]	11 to 40 µM
Cc1ccccc1-c1ccc(C=C2SC(=S)N(c3cc(C(=O)O)ccc3F)C2=O)o1 [Compound A144]	< 10 µM
Cc1ccccc1-c1ccc(C=C2SC(=S)N(c3cc(C(=O)O)ccc3C)C2=O)o1 [Compound A145]	< 10 µM
COc1ccc(-c2ccc(C=C3SC(=S)N(c4cccc(C(=O)O)c4)C3=O)o2)cc1Cl [Compound A146]	< 10 µM
Cc1ccc(-c2ccc(C=C3SC(=S)N(c4cccc(C(=O)O)c4)C3=O)o2)cc1 [Compound A147]	11 to 40 µM
Cc1cc(F)ccc1-c1ccc(C=C2SC(=S)N(c3cccc(C(=O)O)c3)C2=O)o1 [Compound A148]	< 10 µM
Cc1cc(F)ccc1-c1ccc(C=C2SC(=S)N(c3cc(C(=O)O)ccc3F)C2=O)o1 [Compound A149]	< 10 µM
Cc1ccc(-c2ccc(C=C3SC(=S)N(c4cccc(C(=O)O)c4)C3=O)o2)c(F)c1 [Compound A150]	11 to 40 µM
Cc1ccc(-c2ccc(C=C3SC(=S)N(c4cc(C(=O)O)ccc4F)C3=O)o2)c(F)c1 [Compound A151]	< 10 µM
COc1ccc(-c2ccc(C=C3SC(=S)N(c4cccc(C(=O)O)c4)C3=O)o2)cc1 [Compound A152]	11 to 40 µM
O=C(O)c1cccc(N2C(=O)C(=Cc3ccc(-c4ccc(F)cc4F)o3)SC2=S)c1 [Compound A153]	< 10 µM
O=C(O)c1ccc(F)c(N2C(=O)C(=Cc3ccc(-c4ccc(F)cc4F)o3)SC2=S)c1 [Compound A154]	< 10 µM
Cc1ccc(-c2ccc(C=C3SC(=S)N(c4cccc(C(=O)O)c4)C3=O)o2)c(C)c1 [Compound A155]	11 to 40 µM
Cc1ccc(-c2ccc(C=C3SC(=S)N(c4cc(C(=O)O)ccc4F)C3=O)o2)c(C)c1 [Compound A156]	< 10 µM

SMILES	IC50
CC(C)(C)OC(=O)Nc1ccccc1-c1ccc(C=C2SC(=S)N(c3cccc(C(=O)O)c3)C2=O)o1 [Compound A157]	> 41 µM
Nc1ccccc1-c1ccc(C=C2SC(=S)N(c3cccc(C(=O)O)c3)C2=O)o1 [Compound A158]	> 41 µM
COc1ccc(-c2ccc(C=C3SC(=S)N(c4cccc(C(=O)O)c4)C3=O)o2)c(C)c1 [Compound A159]	11 to 40 µM
COc1ccc(-c2ccc(C=C3SC(=S)N(c4cc(C(=O)O)ccc4F)C3=O)o2)c(C)c1 [Compound A160]	< 10 µM
Cc1ccccc1-c1cccc(C=C2SC(=S)N(c3cc(C(=O)O)ccc3F)C2=O)n1 [Compound A161]	< 10 µM
O=C(O)c1cccc(N2C(=O)C(=Cc3ccc(-c4ccccc4O)o3)SC2=S)c1 [Compound A162]	< 10 µM
O=C(O)c1ccc(F)c(N2C(=O)C(=Cc3ccc(-c4ccccc4O)o3)SC2=S)c1 [Compound A163]	< 10 µM
CC(C)(C)OC(=O)Nc1ccccc1-c1ccc(C=C2SC(=S)N(c3cc(C(=O)O)ccc3F)C2=O)o1 [Compound A164]	11 to 40 µM
Cc1ccc(-c2ccc(C=C3SC(=S)N(c4cc(C(=O)O)ccc4F)C3=O)o2)cc1 [Compound A165]	< 10 µM
COc1ccc(-c2ccc(C=C3SC(=S)N(c4cc(C(=O)O)ccc4F)C3=O)o2)cc1 [Compound A166]	< 10 µM
COc1ccc(-c2ccc(C=C3SC(=S)N(c4cccc(C(=O)O)c4)C3=O)o2)c(OC)c1 [Compound A167]	< 10 µM
COc1ccc(-c2ccc(C=C3SC(=S)N(c4cc(C(=O)O)ccc4F)C3=O)o2)c(OC)c1 [Compound A168]	< 10 µM
Cc1cc(Cl)ccc1-c1ccc(C=C2SC(=S)N(c3cccc(C(=O)O)c3)C2=O)o1 [Compound A169]	< 10 µM
Cc1cc(Cl)ccc1-c1ccc(C=C2SC(=S)N(c3cc(C(=O)O)ccc3F)C2=O)o1 [Compound A170]	< 10 µM
Cc1cccc(C)c1-c1ccc(C=C2SC(=S)N(c3cccc(C(=O)O)c3)C2=O)o1 [Compound A171]	11 to 40 µM
Cc1cccc(C)c1-c1ccc(C=C2SC(=S)N(c3cc(C(=O)O)ccc3F)C2=O)o1 [Compound A172]	< 10 µM
Cc1ccccc1-c1cccc(C=C2SC(=S)N(c3cccc(C(=O)O)c3)C2=O)c1 [Compound A173]	11 to 40 µM
Cc1ccccc1-c1cccc(C=C2SC(=S)N(c3cc(C(=O)O)ccc3F)C2=O)c1 [Compound A174]	< 10 µM
COc1cc(F)ccc1-c1ccc(C=C2SC(=S)N(c3cccc(C(=O)O)c3)C2=O)o1 [Compound A175]	< 10 µM
COc1cc(F)ccc1-c1ccc(C=C2SC(=S)N(c3cc(C(=O)O)ccc3F)C2=O)o1 [Compound A176]	< 10 µM
COc1ccc(-c2ccc(C=C3SC(=S)N(c4cccc(C(=O)O)c4)C3=O)o2)cc1F [Compound A177]	< 10 µM
COc1ccc(-c2ccc(C=C3SC(=S)N(c4cc(C(=O)O)ccc4F)C3=O)o2)cc1F [Compound A178]	< 10 µM
O=C(O)c1cccc(N2C(=O)C(=Cc3ccc(-c4ccccc4OCc4ccccc4)o3)SC2=S)c1 [Compound A179]	< 10 µM

SMILES	IC50
O=C(O)c1ccc(F)c(N2C(=O)C(=Cc3ccc(-c4ccccc4OCc4ccccc4)o3)SC2=S)c1 [Compound A180]	< 10 µM
Cc1cc(C)c(-c2ccc(C=C3SC(=S)N(c4cc(C(=O)O)ccc4F)C3=O)o2)c(C)c1 [Compound A181]	< 10 µM
Cc1cc(N(C)C)ccc1-c1ccc(C=C2SC(=S)N(c3cccc(C(=O)O)c3)C2=O)o1 [Compound A182]	< 10 µM
Cc1cc(N(C)C)ccc1-c1ccc(C=C2SC(=S)N(c3cc(C(=O)O)ccc3F)C2=O)o1 [Compound A183]	11 to 40 µM
Cc1cc(C)c(-c2ccc(C=C3SC(=S)N(c4cccc(C(=O)O)c4)C3=O)o2)c(C)c1 [Compound A184]	11 to 40 µM
CSc1ccccc1-c1ccc(C=C2SC(=S)N(c3cccc(C(=O)O)c3)C2=O)o1 [Compound A185]	< 10 µM
CSc1ccccc1-c1ccc(C=C2SC(=S)N(c3cc(C(=O)O)ccc3F)C2=O)o1 [Compound A186]	< 10 µM
Cc1ccccc1-c1ccc(C=C2SC(=S)N(c3cccc(C(=O)O)c3)C2=O)s1 [Compound A187]	11 to 40 µM
Cc1ccccc1-c1ccc(C=C2SC(=S)N(c3cc(C(=O)O)ccc3F)C2=O)s1 [Compound A188]	< 10 µM
O=C(O)c1cccc(N2C(=O)C(=Cc3ccc(-c4ccccc4Cl)s3)SC2=S)c1 [Compound A189]	< 10 µM
O=C(O)c1ccc(F)c(N2C(=O)C(=Cc3ccc(-c4ccccc4Cl)s3)SC2=S)c1 [Compound A190]	< 10 µM
CN(C)c1ccc(-c2ccc(C=C3SC(=S)N(c4cc(C(=O)O)ccc4F)C3=O)o2)cc1 [Compound A191]	< 10 µM
O=C(O)c1cccc(N2C(=O)C(=Cc3ccccc3-c3ccccc3OCc3ccccc3Cl)SC2=S)c1 [Compound A192]	11 to 40 µM
O=C(O)c1cccc(N2C(=O)C(=Cc3ccc(-c4ccccc4Oc4ccccc4)o3)SC2=S)c1 [Compound A193]	< 10 µM
O=C(O)c1ccc(F)c(N2C(=O)C(=Cc3ccc(-c4ccccc4Oc4ccccc4)o3)SC2=S)c1 [Compound A194]	< 10 µM
O=C(O)c1cccc(N2C(=O)C(=Cc3ccc(-c4ccccc4F)s3)SC2=S)c1 [Compound A195]	11 to 40 µM
O=C(O)c1cccc(N2C(=O)C(=Cc3ccc(-c4ccccc4F)s3)SC2=S)c1 [Compound A196]	< 10 µM
O=C(O)c1ccc(F)c(N2C(=O)C(=Cc3ccccc3-c3ccccc3OCc3ccccc3Cl)SC2=S)c1 [Compound A197]	< 10 µM
Cc1cccc(C)c1-c1ccc(C=C2SC(=S)N(c3cccc(C(=O)O)c3)C2=O)o1 [Compound A198]	< 10 µM
O=C(O)c1cccc(N2C(=O)C(=Cc3ccc(-c4ccc(C(F)(F)F)cc4)o3)SC2=S)c1 [Compound A200]	< 10 µM
O=C(O)c1ccc(F)c(N2C(=O)C(=Cc3ccc(-c4ccc(C(F)(F)F)cc4)o3)SC2=S)c1 [Compound A201]	< 10 µM
O=C(O)c1cccc(N2C(=O)C(=Cc3ccc(-c4cccc(-c5ccccc5)c4)o3)SC2=S)c1 [Compound A202]	< 10 µM
O=C(O)c1ccc(F)c(N2C(=O)C(=Cc3ccc(-c4cccc(-c5ccccc5)c4)o3)SC2=S)c1 [Compound A203]	< 10 µM
